From a melting point compilation (Tetko et al.; mined from patent text by program, amines drawn as free bases though some values may be those of a salt) come the findings set out here.

SMILES strings stand for the structures.

For orientation: melting point means the temperature of the solid-liquid transition.

With `Cc1c(Cc2cccnc2)ccc2ccc(C(=O)O)cc12`, the melting point is 210 to 211 °C.

`CN(C)C=Nc1cnc(-c2cccc(CO)c2)nc1` yielded a melting point of 105 to 106 °C.

As to `CN(C(c1ccc(F)cc1)c1ccc(Cl)cc1Cl)n1cncn1` (centres undefined), the melting point lay in the range of 118 to 119 °C.

In turn, `O=C(O)COCCOCCN1C(=O)c2ccccc2C1=O` returned a melting point of 88 to 90 °C.

The compound `COC1CCN(c2cc(NC(=O)OC(C)(C)C)c([N+](=O)[O-])cc2C#Cc2ccccc2)CC1` showed a melting point of 147 to 150 °C.

`CC(C)OC(=O)c1cc2c(cn1)[nH]c1cccc(Oc3ccc(Cl)cc3)c12` displayed a melting point of 273 to 274 °C.

`Nc1nccn2c(C3CCC3)nc(-c3ccc4cccnc4c3)c12` returned a melting point of 94 to 96 °C.

`CC(C)(C)c1cc(C(=O)NCC(=O)O)ccc1OCc1ccccc1` yielded a melting point of 172 to 174 °C.

Compound `COc1ccc(C(=Cc2nnnn2C)c2ccc(OC)cc2)cc1` had a melting point of 146 to 147 °C.

Turning to `CCOC(=O)c1ccc2c(c1)CCCC2Cn1ccnc1S` (centres undefined), the melting point lay within 155 to 156 °C.

Turning to `CCOCc1nc2c(N)nc3ccc(OCc4ccccc4)cc3c2n1CC(C)(C)O`, the melting point lay in the range of 181 to 182 °C.

Turning to `CCCN1CCCC2(Cc3ccccc3NC2=O)C1=O` (centres undefined), the melting point lay within 151 to 154 °C.

In turn, `CC(C)(C)c1ccc(Cn2cc(C(=O)C(=O)O)c3cc(-c4cccc(Cl)c4)ccc32)cc1` showed a melting point of 138 to 139 °C.

In turn, `COc1ccc(C(c2ccc(OC)cc2)c2cnccc2C(=O)NC23CC4CC(CC2C4)C3)cc1` yielded a melting point of 110 to 112 °C.

The compound `Fc1cc(-n2cc(CN=C=S)nn2)cc(F)c1N1CCOCC1` registered a melting point of 135 °C.

Compound `COc1ccc(C(C)=O)cc1C12CC3CC(CC(C3)C1)C2` came in with a melting point of 138 to 140 °C.

`CC(C)(C)OC(=O)NCCOc1noc2ccc(Cl)cc12` yielded a melting point of 106 to 107 °C.

`NCc1cc2c(Oc3ccc(Cl)cc3)cncc2s1` yielded a melting point of 78.6 to 79.8 °C.

`CC(=O)OC(CN1C(=O)N(C(C)=O)C2(CC(C)(C)N(C(C)=O)C(C)(C)C2)C1=O)CN1C(=O)N(C(C)=O)C2(CC(C)(C)N(C(C)=O)C(C)(C)C2)C1=O` returned a melting point of 286 to 288 °C.

`Cc1nn(-c2cc(Nc3ccc(N)cc3)c(Cl)cc2Cl)c(=O)n1C(F)F` yielded a melting point of 196 to 197 °C.

Compound `CC(C)OC(=O)C(C(=O)O)=C1SCS1` gave a melting point of 123 to 124 °C.

Regarding `O=c1[nH]nc(-c2ccccc2SCc2ccccc2)o1`, the melting point is 169 to 172 °C.

`CCC(CC)N(Cc1ccc(C(=O)O)cn1)S(=O)(=O)c1ccc(F)cc1` registered a melting point of 145 to 147 °C.

In turn, `CCn1cc(C(=O)O)c(=O)c2cc(F)c(N3CCNC(Cn4cccc4)C3)cc21` (centres undefined) returned a melting point of 185 to 188 °C.

Turning to `Nc1cc(C(F)(F)F)c(Br)cc1S(=O)(=O)c1ccccc1`, the melting point is 169 to 171 °C.

As for `O=C(Nc1ccccc1Cl)Oc1ccc2c(c1)N(Cc1ccccc1)CCC2`, the melting point was 145 °C.

Turning to `CCOC(=O)CNC(=O)CCc1cc(Cl)ccc1C(=O)CCCNC(C)=O`, the melting point came out at 96 °C.

`CCOC(=O)c1cn(Cc2ccccc2)nc1NC(=O)N(C)C` showed a melting point of 125 to 126 °C.

As to `O=C(O)CCCCc1c([N+](=O)[O-])cc(O)c(O)c1[N+](=O)[O-]`, the melting point was 135 to 139 °C.

`CSc1nc(C)cc(OC(F)F)n1`: the melting point was 40 to 42 °C.

`COC(=O)[C@@H]1COC(c2ncn3c2CN(C)C(=O)c2sccc2-3)=N1` had a melting point of 215 to 217 °C.

`N#CCCN1CCC(c2[nH]cc3cc(F)ccc23)CC1`: the melting point was 100 to 101 °C.

With `CCCCCCCC(=O)CCC(=O)O`, the melting point was 78 to 78.5 °C.

With `CC(C)(C)OC(=O)COc1cc(NC(=O)OC(C)(C)C)c(NC(=O)CC(=O)c2cccc(C#N)c2)cc1C#Cc1ccccc1`, the melting point came out at 95 °C.

Consider `CCCCCCCCCCC1(CCCCCCCCCC)c2cc(-c3cccs3)ccc2-c2ccc(-c3cccs3)cc21`, for which the melting point was 59.9 to 60.8 °C.

Consider `CCOC(=O)C(=O)Nc1nc2ccccc2s1`, for which the melting point was in the range of 185 to 186 °C.

In the case of `Cc1cc(C)c2nc(C3CC3)n(-c3ccc(C(C(=O)O)C4CCCC4)cc3)c2n1` (centres undefined), the melting point was 180 °C.

`O=C(O)CNC(=O)CC1=C(n2nc(-c3c(-c4ccccc4)nn4ccccc34)ccc2=O)CCCC1` gave a melting point of 190 to 192 °C.

With `ON=C(Cc1ccc(F)cc1)c1ccncc1`, the melting point came out at 155 °C.

In the case of `S=C(NCc1ccccc1)C1(c2ccccn2)CCCS1` (centres undefined), the melting point is 71 °C.

As for `CCOC(=O)c1cn(C)c2cnc3cc(F)c(F)cc3c2c1=O`, the melting point was 272 °C.

`CC[C@H](C(N)=O)N1CCCC1=O` gave a melting point of 115 to 117 °C.

In turn, `C[C@@H]1O[C@](C#CC2CC2)(C(F)(F)F)c2c(ccc3c2OCO3)NC1=O` (relative stereo) came in with a melting point of 252 to 253 °C.

For `C=CCOc1ccc2ccc(C(=O)OCC)cc2c1`, the melting point fell in the range of 60 to 61 °C.

On to `Cc1cc(C(=O)O)n(CC(F)(F)F)n1`, for which the melting point lay within 135 to 139 °C.

Compound `COC(=O)c1sc2ccc(CCl)cc2c1C` registered a melting point of 115 to 116 °C.

As for `Cc1ccccc1N1CCN(CCc2ccc(N3CCCNC3=O)cc2)CC1`, the melting point was 127 to 128 °C.

`Cn1cc(CO)c(=O)c2ccc(Cl)cc21` showed a melting point of 204 to 206 °C.

Turning to `O=C(O)C(O)=CC(=O)c1cc(Cc2ccc(F)cc2F)cn(Cc2ccccc2F)c1=O`, the melting point was in the range of 187 to 189 °C.

Compound `CCOP(=O)(Cc1ccc(NC(=O)CCc2sc(N)nc2-c2ccc(Cl)cc2)cc1)OCC` displayed a melting point of 177 to 178 °C.

`C[C@]12C(=O)[C@]3(C)O[C@]3(C)C(=O)[C@H]1[C@H]1C=C[C@@H]2C1` (racemic) yielded a melting point of 72 to 73 °C.

The compound `COc1cc2c(cc1OC)-c1ccc(OC)c(OC)c1C2=Cc1ccnc2ccccc12` returned a melting point of 203 to 205 °C.

On to `O=C(O)CCCCCCCCCCc1ccco1`, for which the melting point fell in the range of 40 to 41 °C.

As for `CCN1CCCOc2cc(Nc3ncc(Cl)c(N[C@@H]4CCCC[C@H]4NS(C)(=O)=O)n3)ccc21`, the melting point lay within 108 to 110 °C.

For `CNC(=O)N1Cc2ccccc2CCC1=O`, the melting point lay within 140 to 141 °C.

On to `CON1C=C2N=NC3=C(N(CC(C)C)CC(C)=C3)N2C1`, for which the melting point was 144 to 145 °C.

Take `N#Cc1nn(-c2c(Cl)cc(C(F)(F)F)cc2Cl)cc1C1CC1`: the melting point was 124 °C.

Consider `N#Cc1nn(-c2c(Cl)cc(OC(F)(F)F)cc2Cl)cc1C(Cl)=C(Cl)Br`, for which the melting point lay within 143 to 144 °C.

Consider `CSC1=NC(=O)C(=Cc2cccc(-c3cc(F)c(O)c(C45CC6CC(CC(C6)C4)C5)c3)c2)S1`, for which the melting point was in the range of 270 to 271 °C.

Turning to `CCO/C(=C\c1ccc(OCCc2ccc(OCC)cc2)c(OC)c1)C(=O)O`, the melting point is 121 °C.

The compound `COc1cc2c(cc1OCc1ccccc1)CCN(Cc1ccccc1)C2` showed a melting point of 97 to 98 °C.

The compound `CCN1c2cscc2CNc2ccccc21` registered a melting point of 85 to 87 °C.

On to `COc1ccc([N+](=O)[O-])c(CS(=O)(=O)c2ccccc2)c1`, for which the melting point was 167 to 169 °C.

Take `CC1CC2=C(Cc3ccccc32)C([Si](C)(C)C2CC(C)CC3=C2Cc2ccccc23)C1` (centres undefined): the melting point is 179 to 180 °C.
